This passage reports IC50 results from US8080546B2, “Pyrazolo-pyridinone derivatives and methods of use” (Amgen Inc., priority 2007, dated 2011).

For one assay, the system named is THP1 cells. The experiment in a line: Lipopolysaccharide-activated THP1 cell TNF production assay (THP1 cell based). The settings on record: Homo sapiens, THP-1, LPS-induced TNF-α, actual values. As for the experimental part: Lipopolysaccharide-Activated THP1 Cell TNF Production Assay
THP1 cells are resuspended in fresh THP1 media (RPMI 1640, 10% heat-inactivated FBS, 1XPGS, 1XNEAA, plus 30 μM PME) at a concentration of 1E6/mL. One hundred microliters of cells per well are plated in a polystyrene 96-well tissue culture. One microgram per mL of bacterial LPS is prepared in THP1 media and is transferred to the wells. Test compounds are dissolved in 100% DMSO and are serially diluted 3-fold in a polypropylene 96-well microtiter plate (drug plate). HI control and LO control wells contain only DMSO. One microliter of test compound from the drug plate followed by 10 μL of LPS are transferred to the cell plate. The treated cells are induced to synthesize and secrete TNF-α at 37° C. for 3 h. Forty microliters of conditioned media are transferred to a 96-well polypropylene plate containing 110 μL of ECL buffer (50 mM Tris-HCl pH 8.0, 100 mM NaCl, 0.05% Tween 20, 0.05% NaN3 and 1% FBS) supplemented with 0.44 nM MAB610 monoclonal Ab (R&D Systems), 0.34 nM ruthenylated AF210NA polyclonal Ab (R&D Systems) and 44 μg/mL sheep anti-mouse M280 Dynabeads (Dynal). After a 2 h incubation at room temperature with shaking, the reaction is read on the ECL M8 Instrument (IGEN Inc.). A low voltage is applied to the ruthenylated TNF-α immune complexes, which in the presence of TPA (the active component in Origlo), results in a cyclical redox reaction generating light at […]. The amount of secreted TNF-α in the presence of compound compared with that in the presence of DMSO vehicle alone (HI control) is calculated using the formula: % control (POC)=(cpd−average LO)/(average HI−average LO)*100. Data (consisting of POC and inhibitor concentration in μM) is fitted to a 4-parameter equation (y=A+((B−A)/(1+((x/C)^D))), where A is the minimum y (POC) value, B is the maximum y (POC), C is the x (cpd concentration) at the point of inflection and D is the slope factor) using a Levenburg-Marquardt non-linear regression algorithm.

The next assay deals with IL-1. Put plainly: LPS induced IL-1 cell based assay (LPS-activated monocytes). The following applies: Homo sapiens, Monocyte; actual values. As for the experimental part: Lipopolysaccharide-Activated Monocyte TNF Production Assay
Test compounds were evaluated in vitro for the ability to inhibit the production of TNF by monocytes activated with bacterial lipopolysaccharide (LPS). Fresh residual source leukocytes (a byproduct of plateletpheresis) were obtained from a local blood bank, and peripheral blood mononuclear cells (PBMCs) were isolated by density gradient centrifugation on Ficol-Paque Plus (Pharmacia). PBMCs were suspended at 2×10^6/mL in DMEM supplemented to contain 2% FCS, 10 mM, 0.3 mg/mL […], 100 U/mL penicillin G and […] streptomycin sulfate (complete media). Cells were plated into Falcon flat bottom, 96 well culture plates (200 μL/well) and cultured overnight at 37° C. and 6% CO2. Non-adherent cells were removed by washing with 200 μl/well of fresh medium. Wells containing adherent cells (˜70% monocytes) were replenished with 100 μL of fresh medium.
Preparation of Test Compound Stock Solutions
Test compounds were dissolved in […]. Compound stock solutions were prepared to an initial concentration of […]. Stocks were diluted initially to 20-200 μM in complete media. Nine two-fold serial dilutions of each compound were then prepared in complete medium.
Treatment of Cells with Test Compounds and Activation of TNF Production with Lipopolysaccharide
One hundred microliters of each test compound dilution were added to microtiter wells containing adherent monocytes and 100 μL complete medium. Monocytes were cultured with test compounds for 60 min at which time 25 μL of complete medium containing 30 ng/mL lipopolysaccharide from E. coli K532 were added to each well. Cells were cultured an additional 4 hrs. Culture supernatants were then removed and TNF presence in the supernatants was quantified using an ELISA. […]
Standard curve data were fit to a second order polynomial and unknown TNF-α concentrations determined from their OD by solving this equation for concentration. TNF concentrations were then plotted vs. test compound concentration using a second order polynomial. This equation was then used to calculate the concentration of test compounds causing a 50% reduction in TNF production.
Compounds of the invention can also be shown to inhibit LPS-induced release of IL-1β, IL-6 and/or IL-8 from monocytes by measuring concentrations of IL-1β, IL-6 and/or IL-8 by methods well known to those skilled in the art. […] Thus, the compounds of the invention may lower elevated levels of TNF-α, IL-1, IL-6, and IL-8 levels. Reducing elevated levels of these inflammatory cytokines to basal levels or below is favorable in controlling, slowing progression, and alleviating many disease states.

The target of a further assay is p38 (Homo sapiens, UniProt Q16539). Put plainly: p38 in-vitro HTRF enzyme assay. It is filed as biochemical. The settings on record: recombinant human enzyme; actual values; read-out: p38 enyme HTRF assay IC50. As for the experimental part:
p38 In-Vitro HTRF Enzyme Assay
The compounds of the invention can be tested for their respective affinities for the p38 protein using a conventional p38 in-vitro enzyme activity assay. For example, a P38-alpha HTRF assay may be used to measure the protein's in-vitro phosphorylation activity, and the data analyzed using time resolved fluorimetry techniques (FRET). A p38 HTRF assay is as follows. The kinase reaction buffer for p38α, p38β, p38δ and p38γ HTRF assays consists of 50 mM Tris-pH 7.5, 5 mM MgCl2, 0.1 mg/mL BSA, 100 μM Na3VO4 and 0.5 mM DTT. The HTRF detection buffer contains 100 mM HEPES-pH 7.5, 100 mM NaCl, 0.1% BSA, 0.05% Tween-20, and 10 mM EDTA. Each compound was dissolved in 100% DMSO and serially diluted (3 fold, 10 point) in a polypropylene 96-well microtiter plate (drug plate). The final starting concentration of the compound in the p38α and p38β enzymatic assays was about 1 μM. The final starting concentration of each compound in the p38δ and p38γ enzymatic assays was about 10 μM. The p38α, p38β, p38δ and p38γ kinase reactions were carried out in a polypropylene 96-well black round bottom assay plate in total volume of 30 μL kinase reaction buffer. Appropriate concentration of purified and activated enzyme (recombinant human) was mixed with indicated concentration of ATP and 100 nM GST-ATF2-Avitag, in the presence or absence (HI control) of each compound. In the absence of enzyme, the background was measured as LO control. HI controls and LO controls contained only DMSO. The reaction was allowed to incubate for 1 hour at RT. […] After 60 minutes incubation at room temperature, the assay plate was read in a Discovery Plate Reader. […] The resulting data was analyzed by taking the proportion of substrate phosphorylated in the kinase reaction in the presence of each individual compound and comparing it with that phosphorylated in the presence of DMSO vehicle alone (HI control). The data was calculated using the formula: % control (POC)=(compound−average LO)/(average HI−average LO)*100. […] All results were expressed as the mean±the standard error of the mean. Data acquisition and non-linear regression algorithms were performed using Activity Base v5.2 and XLfit software v4.1 respectively. Additional assay information may be obtained in Park Y W, Cummings R T, Wu L, et al. Homogeneous Proximity Tyrosine Kinase Assays Scintillation Proximity Assay versus Homogeneous Time-Resolved Fluorescence. Analytical Biochemistry.

As a reminder, the IC50 is the concentration at which inhibition is half-maximal.

p38, sequence (Q16539 whole entry): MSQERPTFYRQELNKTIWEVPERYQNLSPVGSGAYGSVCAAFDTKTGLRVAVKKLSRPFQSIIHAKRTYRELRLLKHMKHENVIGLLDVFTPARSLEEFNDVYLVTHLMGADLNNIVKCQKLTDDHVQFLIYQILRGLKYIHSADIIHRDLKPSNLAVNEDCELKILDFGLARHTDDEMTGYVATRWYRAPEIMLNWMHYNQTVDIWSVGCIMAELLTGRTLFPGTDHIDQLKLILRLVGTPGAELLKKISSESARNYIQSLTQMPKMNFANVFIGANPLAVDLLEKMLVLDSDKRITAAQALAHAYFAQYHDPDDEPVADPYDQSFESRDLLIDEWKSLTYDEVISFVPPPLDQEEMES

For the compound `CONC(=O)c1ccc(C)c(Nc2cc(=O)n(C)c3c2cnn3-c2ccc(F)cc2F)c1` [Example 30, 3-((1-(2,4-difluorophenyl)-7-methyl-6-oxo-6,7-dihydro-1H-pyrazolo[3,4-b]pyridin-4-yl)amino)-N-methoxy-4-methylbenzamide], the IC50 in the assay with THP1 cells worked out at 0.6 nM; in the assay with IL-1, 3.8 nM; on p38, 1.6 nM.
